Data reported in ChEMBL document CHEMBL3046735, “11-Chloro-3-methyl-3H-imidazo[4,5-a]acridine (CMIA) as a potent and selective antimicrobial agent against clinical isolates of highly antibiotic-resistant Acinetobacter baumannii” (Med Chem Res, 2012).
Converted amounts (≈) assume the structure as drawn.

Assays:
[1] = system: Klebsiella pneumoniae; test: Bactericidal activity against Klebsiella pneumoniae urine isolate after 24 hr by NCCLS dilution tube method; assay type: functional
[2] = system: Staphylococcus aureus; test: Bactericidal activity against Staphylococcus aureus urine isolate after 24 hr by NCCLS dilution tube method; assay type: functional
[3] = system: Staphylococcus saprophyticus; test: Bactericidal activity against Staphylococcus saprophyticus bronchi isolate after 24 hr by NCCLS dilution tube method; assay type: functional
[4] = system: Klebsiella pneumoniae; test: Bactericidal activity against Klebsiella pneumoniae wound isolate after 24 hr by NCCLS dilution tube method; assay type: functional
[5] = system: Acinetobacter baumannii; test: Bactericidal activity against multidrug-resistant Acinetobacter baumannii urine isolate after 24 hr by NCCLS dilution tube method; assay type: functional
[6] = system: Acinetobacter baumannii; test: Bactericidal activity against multidrug-resistant Acinetobacter baumannii wound isolate after 24 hr by NCCLS dilution tube method; assay type: functional
[7] = system: Pseudomonas aeruginosa; test: Bactericidal activity against Pseudomonas aeruginosa urine isolate after 24 hr by NCCLS dilution tube method; assay type: functional
[8] = system: Staphylococcus aureus; test: Bactericidal activity against Staphylococcus aureus wound isolate after 24 hr by NCCLS dilution tube method; assay type: functional
[9] = system: Staphylococcus epidermidis; test: Bactericidal activity against Staphylococcus epidermidis eye isolate after 24 hr by NCCLS dilution tube method; assay type: functional
[10] = system: Escherichia coli; test: Bactericidal activity against Escherichia coli bronchi isolate after 24 hr by NCCLS dilution tube method; assay type: functional
[11] = system: Acinetobacter baumannii; test: Bactericidal activity against multidrug-resistant Acinetobacter baumannii bronchi isolate after 24 hr by NCCLS dilution tube method; assay type: functional
[12] = system: Escherichia coli; test: Bactericidal activity against Escherichia coli urine isolate after 24 hr by NCCLS dilution tube method; assay type: functional
[13] = system: Pseudomonas aeruginosa; test: Bactericidal activity against Pseudomonas aeruginosa wound isolate after 24 hr by NCCLS dilution tube method; assay type: functional
[14] = system: Escherichia coli; test: Bactericidal activity against Escherichia coli PTCC 1338 after 24 hr by NCCLS dilution tube method; assay type: functional; conditions: PTCC 1338, 24 h
[15] = system: Klebsiella pneumoniae; test: Bactericidal activity against Klebsiella pneumoniae PTCC 1053 after 24 hr by NCCLS dilution tube method; assay type: functional; conditions: PTCC 1053, 24 h
[16] = system: Staphylococcus aureus; test: Bactericidal activity against Staphylococcus aureus PTCC 1074 after 24 hr by NCCLS dilution tube method; assay type: functional; conditions: PTCC 1074, 24 h
[17] = system: Pseudomonas aeruginosa; test: Bactericidal activity against Pseudomonas aeruginosa PTCC 1431 after 24 hr by NCCLS dilution tube method; assay type: functional; conditions: PTCC 1431, 24 h
[18] = Octanol-water partition coefficient, log D of the compound at pH 7.4 after 6 hr by shake flask method; assay type: physicochemical

Compound	MBC [1] [µg/mL]	MBC [2] [µg/mL]	MBC [3] [µg/mL]	MBC [4] [µg/mL]	MBC [5] [µg/mL]	MBC [6] [µg/mL]	MBC [7] [µg/mL]	MBC [8] [µg/mL]	MBC [9] [µg/mL]	MBC [10] [µg/mL]	MBC [11] [µg/mL]	MBC [12] [µg/mL]	MBC [13] [µg/mL]	MBC [14] [µg/mL]	MBC [15] [µg/mL]	MBC [16] [µg/mL]	MBC [17] [µg/mL]	logD at 6 h [18]
CCn1cc(C(=O)O)c(=O)c2ccc(C)nc21 [NALIDIXIC ACID]	29.1 (≈ 125 µM)	> 100	> 100	25.9 (≈ 112 µM)	> 100	> 100	> 100	81.6 (≈ 351 µM)	> 100	22.7 (≈ 97.7 µM)	> 100	24 (≈ 103 µM)	> 100	–	–	–	–	–
CC1(C)S[C@@H]2[C@H](NC(=O)[C@H](N)c3ccc(O)cc3)C(=O)N2[C@H]1C(=O)O [AMOXICILLIN]	> 100	> 100	> 100	> 100	> 100	> 100	> 100	> 100	> 100	> 100	> 100	76.2 (≈ 209 µM)	> 100	–	–	–	–	–
NC[C@H]1O[C@H](O[C@H]2[C@H](O)[C@@H](O[C@H]3O[C@H](CO)[C@@H](O)[C@H](N)[C@H]3O)[C@H](N)C[C@@H]2N)[C@H](O)[C@@H](O)[C@@H]1O [KANAMYCIN]	12.5 (≈ 25.8 µM)	55.1 (≈ 114 µM)	40 (≈ 82.6 µM)	16 (≈ 33 µM)	> 100	> 100	47.9 (≈ 98.9 µM)	17.9 (≈ 36.9 µM)	25 (≈ 51.6 µM)	85.5 (≈ 176 µM)	> 100	84.4 (≈ 174 µM)	48.4 (≈ 99.9 µM)	–	–	–	–	–
CCCn1cnc2c3c(Cl)c4ccccc4nc3ccc21	–	–	–	–	–	–	–	–	–	–	–	–	–	25 (≈ 84.5 µM)	25 (≈ 84.5 µM)	6.25 (≈ 21.1 µM)	> 100	1.09
Cn1cnc2c3c(Cl)c4ccccc4nc3ccc21	47.9 (≈ 179 µM)	91 (≈ 340 µM)	93.7 (≈ 350 µM)	85.7 (≈ 320 µM)	10.9 (≈ 40.7 µM)	2 (≈ 7.47 µM)	85 (≈ 317 µM)	72.3 (≈ 270 µM)	73.7 (≈ 275 µM)	89.3 (≈ 334 µM)	4.7 (≈ 17.6 µM)	56.4 (≈ 211 µM)	75 (≈ 280 µM)	6.25 (≈ 23.3 µM)	12.5 (≈ 46.7 µM)	3.1 (≈ 11.6 µM)	75 (≈ 280 µM)	0.52
C=CC1=C(C(=O)O)N2C(=O)[C@@H](NC(=O)/C(=N\OCC(=O)O)c3csc(N)n3)[C@H]2SC1 [CEFIXIME]	20.8 (≈ 45.9 µM)	45.2 (≈ 99.7 µM)	24.5 (≈ 54 µM)	44.6 (≈ 98.4 µM)	75 (≈ 165 µM)	82.8 (≈ 183 µM)	20 (≈ 44.1 µM)	33.1 (≈ 73 µM)	28.7 (≈ 63.3 µM)	23.1 (≈ 50.9 µM)	87.5 (≈ 193 µM)	12.1 (≈ 26.7 µM)	96.9 (≈ 214 µM)	–	–	–	–	–
CCCCCn1cnc2c3c(Cl)c4ccccc4nc3ccc21	–	–	–	–	–	–	–	–	–	–	–	–	–	50 (≈ 154 µM)	25 (≈ 77.2 µM)	12.5 (≈ 38.6 µM)	> 100	1.48
CN(C)[C@@H]1C(O)=C(C(N)=O)C(=O)[C@@]2(O)C(O)=C3C(=O)c4c(O)cccc4[C@@](C)(O)[C@H]3C[C@@H]12 [TETRACYCLINE]	26 (≈ 58.5 µM)	26.3 (≈ 59.2 µM)	–	30.3 (≈ 68.2 µM)	87.5 (≈ 197 µM)	–	21.2 (≈ 47.7 µM)	12.5 (≈ 28.1 µM)	81.2 (≈ 183 µM)	–	–	20.4 (≈ 45.9 µM)	54.7 (≈ 123 µM)	–	–	–	–	–
NC[C@H]1O[C@H](O[C@H]2[C@H](O)[C@@H](O[C@H]3O[C@H](CO)[C@@H](O)[C@H](N)[C@H]3O)[C@H](N)C[C@@H]2N)[C@H](N)C[C@@H]1O [TOBRAMYCIN]	28.1 (≈ 60.1 µM)	11.8 (≈ 25.2 µM)	25 (≈ 53.5 µM)	24.1 (≈ 51.5 µM)	78.1 (≈ 167 µM)	83.3 (≈ 178 µM)	13.7 (≈ 29.3 µM)	17.3 (≈ 37 µM)	50 (≈ 107 µM)	74 (≈ 158 µM)	68 (≈ 145 µM)	64.3 (≈ 138 µM)	26.5 (≈ 56.7 µM)	–	–	–	–	–
CCn1cc(C(=O)O)c(=O)c2cc(F)c(N3CCNCC3)cc21 [NORFLOXACIN]	11.5 (≈ 36 µM)	11.5 (≈ 36 µM)	50 (≈ 157 µM)	50 (≈ 157 µM)	62.5 (≈ 196 µM)	41.7 (≈ 131 µM)	13.7 (≈ 42.9 µM)	9.8 (≈ 30.7 µM)	75 (≈ 235 µM)	12.2 (≈ 38.2 µM)	37.5 (≈ 117 µM)	7.3 (≈ 22.9 µM)	25.8 (≈ 80.8 µM)	–	–	–	–	–
CC(C)(O/N=C(\C(=O)N[C@@H]1C(=O)N2C(C(=O)[O-])=C(C[n+]3ccccc3)CS[C@H]12)c1csc(N)n1)C(=O)O [CEFTAZIDIME]	22.9 (≈ 41.9 µM)	80.2 (≈ 147 µM)	82.4 (≈ 151 µM)	92.8 (≈ 170 µM)	93.7 (≈ 171 µM)	91.7 (≈ 168 µM)	43.8 (≈ 80.1 µM)	63.5 (≈ 116 µM)	73.7 (≈ 135 µM)	45.4 (≈ 83.1 µM)	90.6 (≈ 166 µM)	14.4 (≈ 26.3 µM)	90.6 (≈ 166 µM)	–	–	–	–	–
CO/N=C(\C(=O)N[C@@H]1C(=O)N2C(C(=O)O)=C(COC(C)=O)CS[C@H]12)c1csc(N)n1 [CEFOTAXIME]	25 (≈ 54.9 µM)	77.2 (≈ 169 µM)	95 (≈ 209 µM)	51.8 (≈ 114 µM)	90.6 (≈ 199 µM)	95.8 (≈ 210 µM)	16.3 (≈ 35.8 µM)	12.7 (≈ 27.9 µM)	75 (≈ 165 µM)	24.5 (≈ 53.8 µM)	96.9 (≈ 213 µM)	17.3 (≈ 38 µM)	81.2 (≈ 178 µM)	–	–	–	–	–
